# Where two headings read alike, the source gives them in different places.
# Key:
# [1] = test system: arteriovenous bypass thrombosis in rats; assay: Test of effect of compounds on arteriovenous bypass thrombosis in rats; format: in vivo, SD rats; design: Dry weight of thrombus (%): unit not given here; conditions: for ED50: Rattus norvegicus, po; for Inhibition rate (%): dry weight of thrombus; for Dry weight of thrombus (%): loop opened 2.5 h after administration, 15 min
# Method: Test of Effect of Compounds on Arteriovenous Bypass Thrombosis in Rats
# Male SD rats were randomly divided into solvent control group, positive drug control group and test compound group. The solvent control group was administered a corresponding volume of the solvent. […] Rats were anesthetized with 4% chloral hydrate (0.32 g/kg), and fixed on the operating table at the supine position. The right common carotid artery and the left external jugular vein were separated, and was each inserted with a Teflon tube filled with normal saline solution containing heparin (50 U/mL), which were connected through another Teflon tube. A 6 cm long cotton thread was placed at the joints of the two tubes. After 2.5 h of administration, the arteriovenous loop was opened in each group and circulated for 15 min. The blood flow was interrupted, and the cotton thread wrapped with the thrombus was quickly removed and weighed. The weight of the cotton thread was subtracted to obtain the wet weight of the thrombus, and then it was baked in the oven to constant weight and weighed. The weight of the cotton thread was subtracted to obtain the dry weight of the thrombus.
# beagle dogs = assay: Safety evaluation in single dosing; format: in vivo; conditions: intragastric single dose of 2 g/kg; for Activities, mental condition and diet: administration and observation period
# Method: Safety Evaluation of Compounds I-1 and I-2 in Single Dosing: The test consisted of a physiological control group, a solvent control group, and two administration groups, with 4 animals in each group, half of which were male and the other half of which were female. The animals were intragastrically administered with the test compounds at a single dose of 2 g/kg. The solvent control group was administered with an equal volume of the blank solvent. Animals were daily observed for various conditions during the test. ECG examinations were performed before administration, 1 h after administration, and 7 and 14 days after administration. Hematological and blood biochemical tests were performed before administration and 1, 7 and 12 days after administration.
# [2] = Light-avoidance stability test after being packaged with aluminum foil (HPLC); format: physicochemical
# Method: The stability of the compound is investigated under the conditions of high temperature, high humidity and light. The testing conditions for high performance liquid chromatography (HPLC) are as follows: Samples relating to Compound I-2 were tested using Method 2 and other samples were tested using Method 1. The test results of the influence factors are shown in Table 14, and the test results of the light-avoidance stability test are shown in Table 15.
# [3] = test system: bleeding time of amputated tail in rats; assay: Test of hemorrhagic side effects: bleeding time of amputated tail in rats; format: in vivo, SD rats; conditions: intragastric, tail cut 1 h after administration, linear equation fitted
# Method: Test of Hemorrhagic Side Effects:
# 1 h after administration, the rats were anesthetized by intraperitoneal injection of 20% urethane (1 g/kg), and the tail was cut off 5 mm from the tip of the tail, which was then placed in a test tube containing 5 ml normal saline at 37° C. The time from tail cut to cease of bleeding was recorded as the bleeding time. The increasing rate of bleeding time in each dose group was calculated, with the bleeding time of the rats in the control group being 100%.
# [4] = Stability of crystalline form A of I-1 (X-ray powder diffraction after high temperature, high humidity, light); format: physicochemical
# [5] = 5 days, Light (aluminum foil) 4500 ± 500 LX
# [6] = 10 days, Light (aluminum foil) 4500 ± 500 LX
# [7] = 30 days, Light (aluminum foil) 4500 ± 500 LX
SMILES,"Inhibition rate (%) ([1]; rats, intragastric 1 mg/kg)","Inhibition rate (%) ([1]; rats, intragastric 3 mg/kg)","Inhibition rate (%) ([1]; rats, intragastric 10 mg/kg)","Inhibition rate (%) ([1]; rats, intragastric 30 mg/kg)","Dry weight of thrombus (%) ([1]; rats, intragastric 1 mg/kg)","Dry weight of thrombus (%) ([1]; rats, intragastric 3 mg/kg)","Dry weight of thrombus (%) ([1]; rats, intragastric 10 mg/kg)","Dry weight of thrombus (%) ([1]; rats, intragastric 30 mg/kg)","ECG examinations, hematological tests and serum biochemical tests (beagle dogs)","Activities, mental condition and diet (beagle dogs)","Chromatographic purity % ([2]; 0 day, 0point) [%]","Individual maximum impurity % ([2]; 0 day, 0point) [%]","Chromatographic purity % [2, 5] [%]","Individual maximum impurity % [2, 5] [%]","Chromatographic purity % [2, 6] [%]","Individual maximum impurity % [2, 6] [%]","Chromatographic purity % [2, 7] [%]","Individual maximum impurity % [2, 7] [%]",other results
"C/C=C/C=C/C(=O)Oc1cc2c(s1)CCN([C@H](C(=O)OC)c1ccccc1Cl)C2 [Compound I-2, Methyl (S)-2-(2-chlorophenyl)-2-(2-((2E,4E)-2,4-hexadienoyloxy)-6,7-dihydrothieno[3,2-c]pyridin-5(4H)-yl)-acetate]",36.5,40.3,52.1,68.6,6.4 ± 3.6,6.1 ± 2.9,4.9 ± 2.3,3.2 ± 1.5,no obvious abnormalities,"normal activities, good mental condition, and normal diet",98.879,0.705,98.348,0.699,98.544,0.699,98.434,0.696,"ED50 ([1]; dry weight of thrombus from arteriovenous bypass, rats, intragastric, read-out: ED50): 5.86 mg/kg"
"C/C=C/C(=O)Oc1cc2c(s1)CCN([C@H](C(=O)OC)c1ccccc1Cl)C2 [Compound I-1, Methyl (S,E)-2-(2-chlorophenyl)-2-(2-(2-butenoyloxy)-6,7-dihydrothieno[3,2-c]pyridin-5(4H)-yl)-acetate]",18.3,43.2,56.0,64.2,8.3 ± 2.7,5.8 ± 1.4,4.5 ± 2.4,3.6 ± 0.5,no obvious abnormalities,"normal activities, good mental condition, and normal diet",99.612,0.236,99.598,0.242,99.565,0.243,99.555,0.242,"ED50 [1]: 7.89 mg/kg; ED200 (dose that doubled the bleeding time) [3]: 1.977 mg/kg; Crystalline form ([4]; crystalline form A of I-1, 0 day): Crystalline form A; Crystalline form ([4]; crystalline form A of I-1, 5 days, High humidity (RH 92.5%)): Crystalline form A; Crystalline form ([4]; crystalline form A of I-1, 5 days, High temperature (60° C.)): Crystalline form A; Crystalline form ([4]; crystalline form A of I-1, 5 days, Light (5000 ± 5000 Lx)): Crystalline form A; Crystalline form ([4]; crystalline form A of I-1, 10 days, High humidity (RH 92.5%)): Crystalline form A; Crystalline form ([4]; crystalline form A of I-1, 10 days, High temperature (60° C.)): Crystalline form A; Crystalline form ([4]; crystalline form A of I-1, 10 days, Light (5000 ± 500 Lx)): Crystalline form A; Crystalline form ([4]; crystalline form A of I-1, 30 days, High humidity (RH 92.5%)): Crystalline form A; Crystalline form ([4]; crystalline form A of I-1, 30 days, High temperature (60° C.)): Crystalline form A; Crystalline form ([4]; crystalline form A of I-1, 30 days, Light (5000 ± 500 Lx)): Crystalline form A; Change of the crystalline form by X-ray powder diffraction ([4]; crystalline form A of I-1, high temperature, high humidity and light for 5, 10 and 30 days): has not changed"

# — patent US11466025B2, “Thienopyridine derivatives containing unsaturated aliphatic olefinic bond, preparation method and use thereof” (Tianjin Institute of Pharmaceutical Research Co., Ltd., priority 2017, dated 2022)
